Results on three compounds are retold here after US10925914B2, “Method for alleviating depression using a health functional food containing Vaccinium bracteatum Thunb fruit extract” (priority 2016, dated 2021).

Counter-ions that a name gives are not always drawn.

Data set [1] relates to SH-SY5Y cells (neuroblastoma, human dopaminergic neuronal cells). To be noted: 24 h. How it is done: SH-SY5Y cells (neuroblastoma, human dopaminergic neuronal cells) were incubated in MEM medium containing 1% antimycotics/antibiotics and 10% FBS. The cells were seeded at a density of 10^5 cell/ […] in a 96-well plate, and then incubated for 24 hours.
The cell line used was SH-SY5Y cells, and the cells were treated with the Vaccinium bracteatum Thunb. fruit hot-water extract at concentrations of 1, 3, 10, 30, and 100 μg/ml to investigate cytotoxicity.
(§1) After 24 hours, cell viability was determined using an MTT assay.
as §1

For the next data set, the system named is ICR male mice. The experiment in a line: Forced swimming test after 6-day oral administration. To be noted: comparison group, 6 days. The data set is classed as in vivo. How it is done: The ICR male mice were orally administered with the Vaccinium bracteatum Thunb. fruit extract of the present invention. For a comparative group, escitalopram oxalate used an anti-depressant was orally administered. These were administered for 6 days according to the test. Before drug administration, for the pre-test (pre-swim), tap water around 25° C. was poured into a cylindrical water tank (20 cm in diameter, 40 cm in height) from the bottom of the cylinder to 15 cm, and then the mice were put into the water tank, forced to swim for 15 minutes, taken out from the water, wiped with a dry towel, and then returned to breeding boxes. After 6 days of drug administration, the present test (post-swim) was carried out. […] The recorded image was analyzed excluding the first minute therefrom, and animal behavior during the last 5 minutes was classified into 3 types: immobility behavior (the mouse only floated near the surface of the water, slightly moving while only a part of the upper body including the face was above water), swimming behavior (the mouse moved horizontally around the cylinder moving the front and hind legs in a swimming motion), and climbing behavior (the mouse scratched the wall, somewhat violently kicking the front extremities to move remain above water). The duration of each behavior type was measured.

A further data set has as its system corticosterone (COR). Put plainly: Plasma corticosterone (COR) by ELISA after 6-day administration. It counts as in vivo, mice. The note with it: escitalopram oxalate 10 mg/kg, 6 days; no significance. How it is done:
The effects on concentration changes of the neurotransmitter NE associated with depression and the stress hormone COR in normal conditions were measured by isolating plasma from the mice after 6 day-administration of each drug and using the Abnova ELISA kit according to the instruction of the manufacturer.
A general note: In an ELISA, binding on a coated surface is turned into a signal by an enzyme label.

On to `OO` [H2O2, hydrogen peroxide], for which the cell viability in data set [1] (10 μM) is 50-60%.

Turning to `C[C@]12C[C@H](O)[C@H]3[C@@H](CCC4=CC(=O)CC[C@@]43C)[C@@H]1CC[C@@H]2C(=O)CO` [corticosterone], the cytotoxicity in data set [1] (1 mM) is 50-60%. As to `CN(C)CCC[C@@]1(c2ccc(F)cc2)OCc2cc(C#N)ccc21` [escitalopram oxalate], the swimming time in the data set on ICR male mice (control 51.82±3.38 seconds) amounted to 128.16 ± 6.65 s. The immobility time in the data set on ICR male mice (last 5 min of 6 min swim, control 245.48±4.05 seconds) worked out at 169.65 ± 7.15 s. The “level of the stress hormone corticosterone compared with the control group” value in the data set with corticosterone (COR) is listed as “decrease tendency”.
